Data on two compounds can be found in patent US20080311036A1, “Imaging of Neural and Organ Injury or Damage” (UNIVERSITY OF FLORIDA RESEARCH FOUNDATION, INC., priority 2005, published 2008).

As usually defined, the pIC50 is the IC50 on a negative log10 scale, so that one unit is a factor of ten.

Series [1] is described as follows: in vivo half-life after intravenous administration. As for the experimental part:
To enhance the brain residency of the selected “inhibitor-ligands,” a pro-drug strategy that promotes the “trapping” of their precursors in the CNS are evaluated (Prokai et al., 2000). […] The following scheme outlines the method employed to the selected inhibitor-ligands (see FIG. 5).

In series [2] the test system is calpain. The series can be described thus: in situ calpain inhibition in SH-SY5Y cells challenged with maitotoxin, SBDP145 by Western blot. Type of series: cell-based. The settings on record: SH-SY5Y neuroblastoma cells, maitotoxin 0.3 nM, read-out: IC50 for blocking SBDP145. As for the experimental part: The synthesized promoiety-conjugates Compound 1 and Compound 2, will be tested for oxidation stability at 37° C. in buffer (pH 7.4), rat plasma and rat-brain homogenate to probe the kinetics of the expected conversion to the pyridinium-ion intermediates. […] Compound 1 for calpain and Compound 2 will be further tested in in situ calpain and caspase inhibition analysis in cell culture. This may be important since both proteases are intracellular, so for the in vivo uses of the inhibitor-ligands, compounds must have the ability to penetrate cells and retain potency while inside cells. We will use neuroblastoma cell line SH-SY5Y, which can be manipulated to produce calpain-activation and necrosis with a neurotoxin maitotoxin (0.3 nM, Calbiochem) or caspase activation and apoptosis with calcium-chelator EGTA (5 mM) as we have shown before (McGinnis, Wang, Gnegy, (1999) J. Neurochem. 72, 1853-1863). Importantly the protease-produced spectrin breakdown products SBDP150 and SBDP145 (with maitotoxin) and SBDP150 and SBDP120 (with EGTA) are readily produced and quantitatively detected by Western blot analysis, which parallel the formation of SBDP's in brain injury in vivo. Prototype calpain inhibitor SJA6017 blocked SBDP145 at IC50 of 0.2 μM, while caspase inhibitor z-D-DCB blocks SBDP120 at IC50 of 5 μM. […]
A general note: In western blotting, separated proteins are transferred to a membrane and probed.

For series [3] the following is noted: known calpain inhibitors; cited from earlier work.

pIC50: −log10 of the molar value.

For the compound `CC(C)C[C@@H](C=O)NC(=O)[C@@H](NS(=O)(=O)c1ccc(F)cc1)C(C)C` [SJA-6017], the in vivo half-life entry in series [1] is given as “ca. 11 min”. Further, the negative logarithm of the IC50 (pIC50) in series [2] is 6.70.
As to `CC(=O)N[C@@H](CC(C)C)C(=O)N[C@@H](CC(C)C)C(=O)N[C@H](C=O)CCCNC(=N)N` [leupeptin, N-acetyl-Leu-Leu-argininal], in series [3], the “crossing of cell membranes” value is recorded as “cross cell membranes only poorly”.
